Measurements published in PubChem BioAssay (NCI).
Several values for one entry are separate records, joined by “and”; a condition that tells them apart may be missing. Equal values may be shown once.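 Assay format: 96-well plates, 48-hour exposure. Here, GI50 denotes the concentration required for 50% inhibition of growth. TGI: total growth inhibition.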

Tests used:
Test in all cases: NCI tumour cell line growth inhibition, 48 h
[1] = tested on: 786-0 renal
[2] = tested on: A549 NSCLC
[3] = tested on: ACHN renal
[4] = tested on: BT-549 breast
[5] = tested on: CCRF-CEM leukemia
[6] = tested on: COLO 205 colon
[7] = tested on: DLD-1 colon
[8] = tested on: DMS 114 small cell lung
[9] = tested on: DMS 273 small cell lung
[10] = tested on: DU-145 prostate
[11] = tested on: EKVX NSCLC
[12] = tested on: HCT-15 colon
[13] = tested on: HL-60(TB) leukemia
[14] = tested on: HOP-18 NSCLC
[15] = tested on: HOP-92 NSCLC
[16] = tested on: HT29 colon
[17] = tested on: IGROV1 ovarian
[18] = tested on: K-562 leukemia
[19] = tested on: KM12 colon
[20] = tested on: KM20L2 colon
[21] = tested on: LOX IMVI melanoma
[22] = tested on: M14 melanoma
[23] = tested on: M19-MEL melanoma
[24] = tested on: MALME-3M melanoma
[25] = tested on: MCF7 breast
[26] = tested on: MDA-MB-231 breast
[27] = tested on: MDA-N
[28] = tested on: NCI-H226 lung
[29] = tested on: NCI-H460 lung
[30] = tested on: NCI-H522 lung
[31] = tested on: NCI/ADR-RES ovarian
[32] = tested on: OVCAR-3 ovarian
[33] = tested on: OVCAR-5 ovarian
[34] = tested on: OVCAR-8 ovarian
[35] = tested on: P388/ADR leukemia
[36] = tested on: RPMI-8226 leukemia
[37] = tested on: RXF 393 renal
[38] = tested on: SF-539 CNS
[39] = tested on: SK-MEL-2 melanoma
[40] = tested on: SK-MEL-28 melanoma
[41] = tested on: SK-MEL-5 melanoma
[42] = tested on: SK-OV-3 ovarian
[43] = tested on: SNB-19 CNS
[44] = tested on: SNB-75 CNS
[45] = tested on: SNB-78 CNS
[46] = tested on: SR leukemia
[47] = tested on: TK-10 renal
[48] = tested on: U251 CNS
[49] = tested on: UACC-257 melanoma
[50] = tested on: UACC-62 melanoma
[51] = tested on: UO-31 renal

In the case of CCN(CC)CCOc1cccc2nc3c(cc12)Cn1c-3cc2c(c1=O)COC(=O)C2(O)CC (stereo unspecified), the GI50 [1] is reported as 0.595 µM, the TGI [1] is reported as 11.7 µM and the GI50 [2] is reported as 0.787 µM and 2.06 µM. The TGI [2] was 20.4 µM and 13 µM, the GI50 [3] was 0.675 µM and the TGI [3] was > 100 µM. The GI50 [4] was 2.99 µM, the TGI [4] was 17.2 µM and the GI50 [5] was 0.0125 µM and 0.0735 µM. For the same compound, the TGI [5] was 0.791 µM, the GI50 [6] was 6.58 µM and 1.94 µM and the TGI [6] was 21.8 µM and 30.5 µM. For the same compound, the GI50 [7] was 10.9 µM, the TGI [7] was 38.8 µM and the GI50 [8] was 0.139 µM and 0.206 µM. The GI50 [9] was 0.086 µM and 0.33 µM, the TGI [9] was 1.58 µM and 11.8 µM and the GI50 [10] was 0.423 µM. For the same compound, the TGI [10] was 3.77 µM, the GI50 [11] was 7.37 µM and the TGI [11] was > 40 µM. For the same compound, the GI50 [12] was 5.14 µM and 8.13 µM, the TGI [12] was 26.1 µM and 37.8 µM and the GI50 [13] was 0.304 µM. For the same compound, the TGI [13] was 1.95 µM, the GI50 [14] was 2.34 µM and 2.65 µM and the TGI [14] was 9.93 µM and 18.9 µM. For the same compound, the GI50 [15] was 5.42 µM and 4.83 µM, the TGI [15] was 22.5 µM and 18.3 µM and the GI50 [16] was 2.19 µM and 2.44 µM. The TGI [16] was 12.7 µM and 13.5 µM, the GI50 [17] was 5.77 µM and 4.63 µM and the TGI [17] was 21.6 µM and > 44.8 µM. For the same compound, the GI50 [18] was 2.53 µM, the TGI [18] was > 46.9 µM and the GI50 [19] was 4.53 µM and 7.49 µM. For the same compound, the TGI [19] was 18.5 µM and 25.6 µM, the GI50 [20] was 2 µM and the TGI [20] was 14.4 µM. For the same compound, the GI50 [21] was 0.429 µM and 0.508 µM, the TGI [21] was 11.3 µM and 12.1 µM and the GI50 [22] was 1.11 µM. The TGI [22] was 11.5 µM, the GI50 [23] was 3.74 µM and 2.38 µM and the TGI [23] was 18.5 µM and 17 µM. For the same compound, the GI50 [24] was 11.1 µM and 12.3 µM, the TGI [24] was 24.6 µM and 25 µM and the GI50 [25] was 0.182 µM and 0.449 µM. For the same compound, the TGI [25] was 14.9 µM and 22.4 µM, the GI50 [26] was 19.8 µM and the TGI [26] was 46.4 µM. The GI50 [27] was 13 µM, the TGI [27] was 35.1 µM and the GI50 [28] was 0.963 µM and 2.23 µM. For the same compound, the TGI [28] was 10.9 µM and 16.8 µM, the GI50 [29] was 0.0754 µM and 0.282 µM and the TGI [29] was 1.88 µM and 11.8 µM. For the same compound, the GI50 [30] was 7.54 µM and 1.36 µM, the TGI [30] was 23.1 µM and 14.5 µM and the GI50 [31] was 0.886 µM and 3.07 µM. For the same compound, the TGI [31] was 18 µM and 19.1 µM, the GI50 [32] was 5.64 µM and 9.73 µM and the TGI [32] was 20.3 µM and 25.9 µM. For the same compound, the GI50 [33] was 0.45 µM and 3.46 µM, the TGI [33] was 3.81 µM and 32.7 µM and the GI50 [34] was 1.24 µM and 1.47 µM. The TGI [34] was 30.8 µM and 15.4 µM, the GI50 [35] was 2.56 µM and the TGI [35] was 8.27 µM. For the same compound, the GI50 [36] was 1.47 µM, the TGI [36] was 22.5 µM and the GI50 [37] was 1.4 µM and 10.6 µM. The TGI [37] was 6.08 µM and 28.7 µM, the GI50 [38] was 0.267 µM and 0.774 µM and the TGI [38] was 1.47 µM and 3.93 µM. For the same compound, the GI50 [39] was 12.3 µM and 17.9 µM, the TGI [39] was 25.3 µM and 39.6 µM and the GI50 [40] was 7.51 µM and 12.3 µM. For the same compound, the TGI [40] was 20.7 µM and 30 µM, the GI50 [41] was 1.08 µM and the TGI [41] was 6.31 µM. For the same compound, the GI50 [42] was 4.39 µM, the TGI [42] was > 43.4 µM and the GI50 [43] was 0.329 µM and 0.87 µM. The TGI [43] was 30.6 µM and > 58.1 µM, the GI50 [44] was 1.34 µM and 0.545 µM and the TGI [44] was 19.5 µM and 5.09 µM. The GI50 [45] was 14.1 µM, the TGI [45] was 80.2 µM and the GI50 [46] was 0.169 µM. For the same compound, the TGI [46] was 0.716 µM, the GI50 [47] was 26.7 µM and the TGI [47] was > 100 µM. For the same compound, the GI50 [48] was 0.0867 µM and 0.358 µM, the TGI [48] was 1.43 µM and 11.1 µM and the GI50 [49] was 11 µM and 7.08 µM. For the same compound, the TGI [49] was 23.1 µM and 21 µM, the GI50 [50] was 0.147 µM and 0.273 µM and the TGI [50] was 0.955 µM and 1.56 µM. For the same compound, the GI50 [51] was 1.8 µM and 3.19 µM and the TGI [51] was 8.7 µM and 11.9 µM.
